Like-named read-outs stand apart in the source and are kept apart here.
Tests used:
[1] = target: T1, Zymomonas mobilis ribitol dehydrogenase, wild-type, SEQ ID NO: 4 (Zymomonas mobilis, UniProt Q5NQS1); assay: Dynamical (kinetic) parameters of ribitol dehydrogenase to coenzyme NAD(H)/NADP(H), wild-type; assay type: biochemical
T1 sequence (Q5NQS1 74-338): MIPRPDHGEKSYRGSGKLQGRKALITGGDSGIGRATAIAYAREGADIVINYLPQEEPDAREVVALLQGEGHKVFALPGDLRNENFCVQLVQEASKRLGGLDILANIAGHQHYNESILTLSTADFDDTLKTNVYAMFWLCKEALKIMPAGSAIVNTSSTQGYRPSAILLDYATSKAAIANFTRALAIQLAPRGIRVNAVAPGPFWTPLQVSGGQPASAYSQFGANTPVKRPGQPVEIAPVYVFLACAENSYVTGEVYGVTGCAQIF
Procedure: (§2) The optimum pH on dehydrogenation activity of the ribitol dehydrogenase was measured using 20 mM of Tris-HCl buffer. The enzyme activity was determined by monitoring the change per minute in absorbance at 340 nm while the sample was reacted in the presence of NAD(H) and ribitol.
Then, dynamical parameters were measured through a nonlinear regression analysis.

[2] = target: T2, Zymomonas mobilis ribitol dehydrogenase (SEQ ID NO: 4) variant S156D, SEQ ID NO: 5 (Zymomonas mobilis, UniProt Q5NQS1, N321D/S229D); assay: Dynamical parameters to coenzyme, variant S156D; assay type: biochemical
T2 sequence (Q5NQS1 74-338 S229D/N321D): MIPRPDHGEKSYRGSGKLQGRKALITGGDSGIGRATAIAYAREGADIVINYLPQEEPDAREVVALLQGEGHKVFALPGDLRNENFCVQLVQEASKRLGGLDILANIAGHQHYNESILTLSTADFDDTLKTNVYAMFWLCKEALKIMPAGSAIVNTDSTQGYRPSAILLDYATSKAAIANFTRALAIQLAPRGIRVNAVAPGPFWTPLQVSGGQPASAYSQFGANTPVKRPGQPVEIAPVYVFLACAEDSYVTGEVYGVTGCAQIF
From the text: In addition, the present invention provides a ribitol dehydrogenase mutant selected from the group consisting of a) a mutant, in which serine, an amino acid at position 156 of the ribitol dehydrogenase having an amino acid sequence as set forth in SEQ ID NO: 4 is substituted with aspartic acid; and b) a mutant, in which tyrosine, an amino acid at position 51 of the ribitol dehydrogenase having an amino acid sequence as set forth in SEQ ID NO: 4 is substituted with aspartic acid and serine, an amino acid at position 156 is substituted with alanine.
The mutants have preferably amino acid sequences as set forth in SEQ ID NOS: 5 and 6, respectively, but the present invention is not limited thereto.
(§1) There were no differences between the expression amount of various amino acid variants of Ser 156 and the expression amount of wide-type. The dynamical parameter of each of variants was confirmed using the above variants.

[3] = target: T3, Zymomonas mobilis ribitol dehydrogenase (SEQ ID NO: 4) variant S156E (Zymomonas mobilis, UniProt Q5NQS1, S229E); assay: Dynamical parameters to coenzyme, variant S156E; assay type: biochemical
T3 sequence (Q5NQS1 74-338 S229E): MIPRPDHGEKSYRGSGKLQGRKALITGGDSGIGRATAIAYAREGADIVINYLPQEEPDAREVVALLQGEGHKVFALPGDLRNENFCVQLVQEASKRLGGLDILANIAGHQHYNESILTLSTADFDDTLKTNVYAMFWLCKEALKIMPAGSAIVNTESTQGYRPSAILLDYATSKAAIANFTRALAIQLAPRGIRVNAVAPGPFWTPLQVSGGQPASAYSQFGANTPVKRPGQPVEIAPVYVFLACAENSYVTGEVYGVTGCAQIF
From the text: as §1

[4] = target: T4, Zymomonas mobilis ribitol dehydrogenase (SEQ ID NO: 4) variant S156Y (Zymomonas mobilis, UniProt Q5NQS1, S229Y); assay: Dynamical parameters to coenzyme, variant S156Y; assay type: biochemical
T4 sequence (Q5NQS1 74-338 S229Y): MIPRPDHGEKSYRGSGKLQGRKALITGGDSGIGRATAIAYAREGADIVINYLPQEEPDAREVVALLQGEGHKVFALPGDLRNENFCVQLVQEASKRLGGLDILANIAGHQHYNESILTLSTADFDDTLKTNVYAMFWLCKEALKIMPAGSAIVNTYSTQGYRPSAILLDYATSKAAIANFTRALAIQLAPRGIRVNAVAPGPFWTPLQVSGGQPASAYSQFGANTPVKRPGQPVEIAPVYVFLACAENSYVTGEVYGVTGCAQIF
From the text: as §1

[5] = target: T5, Zymomonas mobilis ribitol dehydrogenase (SEQ ID NO: 4) variant S156A (Zymomonas mobilis, UniProt Q5NQS1, S229A); assay: Dynamical parameters to coenzyme, variant S156A; assay type: biochemical
T5 sequence (Q5NQS1 74-338 S229A): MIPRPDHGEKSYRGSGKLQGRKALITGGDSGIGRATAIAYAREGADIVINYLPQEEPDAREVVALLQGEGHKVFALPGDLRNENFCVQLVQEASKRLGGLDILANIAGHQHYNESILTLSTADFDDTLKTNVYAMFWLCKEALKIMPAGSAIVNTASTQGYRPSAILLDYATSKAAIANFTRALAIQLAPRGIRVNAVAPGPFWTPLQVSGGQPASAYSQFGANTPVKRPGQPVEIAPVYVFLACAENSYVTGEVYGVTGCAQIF
From the text: as §1

[6] = target: T6, Zymomonas mobilis ribitol dehydrogenase (SEQ ID NO: 4) variant S156W (Zymomonas mobilis, UniProt Q5NQS1, S229W); assay: Dynamical parameters to coenzyme, variant S156W; assay type: biochemical
T6 sequence (Q5NQS1 74-338 S229W): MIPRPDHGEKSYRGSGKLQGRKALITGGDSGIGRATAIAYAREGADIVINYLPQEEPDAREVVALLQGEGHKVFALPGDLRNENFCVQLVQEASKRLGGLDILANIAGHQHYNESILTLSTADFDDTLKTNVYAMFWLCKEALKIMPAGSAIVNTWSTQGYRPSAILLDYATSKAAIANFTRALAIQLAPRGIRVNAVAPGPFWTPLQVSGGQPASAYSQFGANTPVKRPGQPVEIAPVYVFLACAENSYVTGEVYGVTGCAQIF
From the text: as §1

[7] = target: T7, Zymomonas mobilis ribitol dehydrogenase (SEQ ID NO: 4) variant S156G (Zymomonas mobilis, UniProt Q5NQS1, S229G); assay: Dynamical parameters to coenzyme, variant S156G; assay type: biochemical
T7 sequence (Q5NQS1 74-338 S229G): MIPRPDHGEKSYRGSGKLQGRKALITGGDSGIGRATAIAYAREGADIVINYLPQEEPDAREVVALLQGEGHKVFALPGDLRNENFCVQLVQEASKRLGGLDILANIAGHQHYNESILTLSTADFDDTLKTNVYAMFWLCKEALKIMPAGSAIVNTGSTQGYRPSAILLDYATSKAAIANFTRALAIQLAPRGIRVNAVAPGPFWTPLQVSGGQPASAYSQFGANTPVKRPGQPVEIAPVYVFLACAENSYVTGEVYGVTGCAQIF
From the text: as §1

[8] = target: T8, Zymomonas mobilis ribitol dehydrogenase (SEQ ID NO: 4) variant S156T (Zymomonas mobilis, UniProt Q5NQS1, S229T); assay: Dynamical parameters to coenzyme, variant S156T; assay type: biochemical
T8 sequence (Q5NQS1 74-338 S229T): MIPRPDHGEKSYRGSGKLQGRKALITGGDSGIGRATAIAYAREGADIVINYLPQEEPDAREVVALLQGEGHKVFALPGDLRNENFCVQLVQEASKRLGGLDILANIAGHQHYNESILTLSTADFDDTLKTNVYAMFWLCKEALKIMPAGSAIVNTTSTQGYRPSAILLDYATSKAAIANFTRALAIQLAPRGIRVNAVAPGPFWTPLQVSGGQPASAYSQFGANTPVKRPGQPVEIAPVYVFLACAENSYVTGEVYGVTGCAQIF
From the text: as §1

[9] = target: T9, Zymomonas mobilis ribitol dehydrogenase (SEQ ID NO: 4) variant S156C (Zymomonas mobilis, UniProt Q5NQS1, S229C); assay: Dynamical parameters to coenzyme, variant S156C; assay type: biochemical
T9 sequence (Q5NQS1 74-338 S229C): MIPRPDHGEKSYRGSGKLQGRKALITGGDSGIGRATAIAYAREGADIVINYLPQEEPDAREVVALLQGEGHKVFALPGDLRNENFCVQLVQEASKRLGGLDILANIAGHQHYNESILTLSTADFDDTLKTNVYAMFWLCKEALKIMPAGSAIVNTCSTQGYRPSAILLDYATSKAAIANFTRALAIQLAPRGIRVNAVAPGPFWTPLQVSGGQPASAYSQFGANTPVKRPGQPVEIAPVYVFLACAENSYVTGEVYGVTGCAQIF
From the text: as §1

[10] = coenzyme NADP(H)
Procedure: as §2

[11] = coenzyme NAD(H)
Procedure: as §2

[12] = substrate: NC(=O)c1ccc[n+]([C@@H]2O[C@H](COP(=O)(O)OP(=O)(O)OC[C@H]3O[C@@H](n4cnc5c(N)ncnc54)[C@H](OP(=O)(O)O)[C@@H]3O)[C@@H](O)[C@H]2O)c1; assay: purified protein, by the assay type; conditions: ribitol, wild-type, pH 9.0
[13] = Production of L-ribulose from ribitol with cell bodies of recombinant strains expressing the variants; assay type: cell-based, E. coli; conditions: whole cells; 20 mM Tris-HCl buffer pH 9.5; 25° C.; 6 hours; HPLC
Procedure: The following experiments were performed in order to produce L-ribulose using a ribitol dehydrogenase variant having double coenzyme specificity. The variants prepared by using the method of Example 5-3 were expressed using the method of Example 2; the cell bodies were only collected by centrifuging (8000×g for 10 minutes) the recombinant strain culture solution; and then the cell bodies were washed with distilled water twice. The final Cell OD was measured and the same amount of cells was used for a production experiment. The ribitol and each of recombinant enzyme variants were subjected to an enzyme reaction in 20 mM of Tris-HCl buffer (pH 9.5) at a temperature of 25° C. for 6 hours.

[14] = Optimum pH on dehydrogenation activity of the ribitol dehydrogenase; assay type: biochemical; conditions: 20 mM Tris-HCl buffer; NAD(H) and ribitol; absorbance at 340 nm
From the text: Physicochemical properties of the ribitol dehydrogenase isolated in Example 4 were investigated using ribitol as a substrate.

[15] = read-out: Km, NAD, NAD 0.01 to 3 mM
[16] = other: NADP(H) 0.1 to 2 mM, 20 mM Tris-HCl, 340 nm

Molecule: NC(=O)c1ccc[n+]([C@@H]2O[C@H](COP(=O)(O)OP(=O)(O)OC[C@H]3O[C@@H](n4cnc5c(N)ncnc54)[C@H](O)[C@@H]3O)[C@@H](O)[C@H]2O)c1 [NAD^+, nicotinamide adenine dinucleotide]
- kcat (NAD^+) ([1]; NAD 0.01 to 3 mM): 4.83 ± 0.51 s⁻¹
- kcat (NAD(H)) ([1]; NAD(H) 0.1 to 2 mM, 20 mM Tris-HCl, 340 nm): about 4.84 s^−1
- Km [1, 15]: 180 ± 20 µM
- Km ([1]; read-out: Km, NAD, NAD(H) 0.1 to 2 mM, 20 mM Tris-HCl, 340 nm): ~180 µM
- kcat (NAD^+) ([2]; NAD 0.01 to 3 mM): 1.79 ± 0.01 s⁻¹
- Km [2, 15]: 20 ± 2 µM
- kcat (NAD^+) ([3]; NAD 0.01 to 3 mM): 2.06 ± 0.07 s⁻¹
- Km [3, 15]: 50 ± 3 µM
- kcat (NAD^+) ([4]; NAD 0.01 to 3 mM): 1.60 ± 0.13 s⁻¹
- Km [4, 15]: 150 ± 10 µM
- kcat (NAD^+) ([5]; NAD 0.01 to 3 mM): 1.93 ± 0.16 s⁻¹
- Km [5, 15]: 190 ± 20 µM
- kcat (NAD^+) ([6]; NAD 0.01 to 3 mM): 2.62 ± 0.11 s⁻¹
- Km [6, 15]: 160 ± 20 µM
- kcat (NAD^+) ([7]; NAD 0.01 to 3 mM): 1.04 ± 0.02 s⁻¹
- Km [7, 15]: 140 ± 10 µM
- kcat (NAD^+) ([8]; NAD 0.01 to 3 mM): 2.85 ± 0.10 s⁻¹
- Km [8, 15]: 210 ± 60 µM
- kcat (NAD^+) ([9]; NAD 0.01 to 3 mM): 2.00 ± 0.09 s⁻¹
- Km [9, 15]: 100 ± 20 µM

B1: Zymomonas mobilis ribitol dehydrogenase, wild-type, SEQ ID NO: 4 (Zymomonas mobilis subsp. mobilis ZM4 = ATCC 31821) (protein)
chain: MIPRPDHGEKSYRGSGKLQGRKALITGGDSGIGRATAIAYAREGADIVINYLPQEEPDAREVVALLQGEGHKVFALPGDLRNENFCVQLVQEASKRLGGLDILANIAGHQHYNESILTLSTADFDDTLKTNVYAMFWLCKEALKIMPAGSAIVNTSSTQGYRPSAILLDYATSKAAIANFTRALAIQLAPRGIRVNAVAPGPFWTPLQVSGGQPASAYSQFGANTPVKRPGQPVEIAPVYVFLACAENSYVTGEVYGVTGCAQIF
- Relative activity (%), NADP(H) [10]: 42.9%
- Relative activity (%), NAD(H) [11]: 100%
- Km ([12]; other: NADP 0.01 to 3 mM): 260 ± 20 µM
- kcat ([12]; other: NADP 0.01 to 3 mM): 2.79 s⁻¹
- kcat/Km ([12]; other: NADP 0.01 to 3 mM): 10800 M⁻¹ s⁻¹
- Km [12, 16]: 260 µM
- kcat [12, 16]: 2.79 s⁻¹
- L-ribulose produced, concentration [13]: 0.80 g/L
- optimum pH [14]: 9.5

— patent US9005937B2, “Dual cofactor specific ribitol dehydrogenase and use thereof” (Konkuk University Industrial Cooperation Corp., priority 2011, dated 2015)
